Patent US10670605B2, “Cysteine reactive probes and uses thereof” (The Scripps Research Institute, priority 2015, dated 2020)
One block for each molecule: values may come before it.

Key:
Assay in all cases: Competitive isoTOP-ABPP, cell lysates
Format in all cases: binding
PDIA6 C55 (Q15084) = target: T1, PDIA6 C55 (Q15084) (Homo sapiens, UniProt Q15084)
T1 sequence (Q15084 20-440): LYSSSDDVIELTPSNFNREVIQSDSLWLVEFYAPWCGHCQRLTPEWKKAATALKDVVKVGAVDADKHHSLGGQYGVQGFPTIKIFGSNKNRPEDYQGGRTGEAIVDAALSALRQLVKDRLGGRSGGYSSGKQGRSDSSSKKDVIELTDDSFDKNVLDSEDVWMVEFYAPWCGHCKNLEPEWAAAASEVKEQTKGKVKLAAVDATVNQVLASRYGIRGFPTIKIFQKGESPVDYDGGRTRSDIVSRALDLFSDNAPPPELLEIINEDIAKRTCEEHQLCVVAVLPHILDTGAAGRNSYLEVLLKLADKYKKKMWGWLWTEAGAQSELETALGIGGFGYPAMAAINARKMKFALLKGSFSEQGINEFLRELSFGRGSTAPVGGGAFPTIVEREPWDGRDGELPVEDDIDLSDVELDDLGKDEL

SMARCC2 C145 (Q8TAQ2) = SMARCC2 C145 (Q8TAQ2) (Homo sapiens, UniProt Q8TAQ2)
DCUN1D1 C115 (Q96GG9) = DCUN1D1 C115 (Q96GG9) (Homo sapiens, UniProt Q96GG9)
SAMHD1 C522 (Q9Y3Z3) = SAMHD1 C522 (Q9Y3Z3) (Homo sapiens, UniProt Q9Y3Z3)
STAT3 C259 (P40763) = STAT3 C259 (P40763) (Homo sapiens, UniProt P40763)
AIP C122 (O00170) = target: T2, AIP C122 (O00170) (Homo sapiens, UniProt O00170); conditions: 500 μm in-vitro ramos
T2 sequence (O00170 1-330): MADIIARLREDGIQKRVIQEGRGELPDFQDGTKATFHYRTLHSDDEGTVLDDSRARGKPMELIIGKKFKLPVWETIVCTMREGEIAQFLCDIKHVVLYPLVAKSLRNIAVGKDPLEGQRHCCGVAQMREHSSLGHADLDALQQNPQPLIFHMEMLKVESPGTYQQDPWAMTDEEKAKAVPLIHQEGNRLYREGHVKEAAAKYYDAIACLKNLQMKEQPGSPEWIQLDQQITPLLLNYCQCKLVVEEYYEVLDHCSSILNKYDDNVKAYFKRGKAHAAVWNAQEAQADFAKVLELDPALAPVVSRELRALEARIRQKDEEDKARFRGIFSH

ACAT1 C196 (P24752) = target: T3, ACAT1 C196 (P24752) (Homo sapiens, UniProt P24752)
T3 sequence (P24752 34-427): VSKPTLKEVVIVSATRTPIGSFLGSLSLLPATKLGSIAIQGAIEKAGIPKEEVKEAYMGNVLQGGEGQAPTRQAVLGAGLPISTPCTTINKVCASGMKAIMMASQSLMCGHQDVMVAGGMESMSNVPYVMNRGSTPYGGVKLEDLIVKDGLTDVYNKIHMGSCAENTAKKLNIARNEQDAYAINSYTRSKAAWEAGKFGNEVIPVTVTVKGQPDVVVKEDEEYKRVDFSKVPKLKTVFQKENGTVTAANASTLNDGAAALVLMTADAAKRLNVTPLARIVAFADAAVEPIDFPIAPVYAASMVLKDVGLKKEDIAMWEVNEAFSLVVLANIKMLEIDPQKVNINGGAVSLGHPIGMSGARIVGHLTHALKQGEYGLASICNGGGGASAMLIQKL

ACAT1 C413 (P24752) = target: T4, ACAT1 C413 (P24752) (Homo sapiens, UniProt P24752)
T4 sequence (P24752 34-427): T3 sequence (P24752 34-427)

ACAT1 C126 (P24752) = target: T5, ACAT1 C126 (P24752) (Homo sapiens, UniProt P24752)
T5 sequence (P24752 34-427): T3 sequence (P24752 34-427)

UBE2L3 C86 (P68036) = UBE2L3 C86 (P68036) (Homo sapiens, UniProt P68036)

isoTOP-ABPP ratio (reactivity profile), Q15084_C55 (PDIA6 C55 (Q15084); 500 μm in-vitro ramos): 1.3
isoTOP-ABPP ratio (reactivity profile), Q8TAQ2_C145 (SMARCC2 C145 (Q8TAQ2); 500 μm in-vitro ramos): 5.4
isoTOP-ABPP ratio (reactivity profile), Q96GG9_C115 (DCUN1D1 C115 (Q96GG9); 500 μm in-vitro ramos): 1.7
isoTOP-ABPP ratio (reactivity profile), Q9Y3Z3_C522 (SAMHD1 C522 (Q9Y3Z3); 500 μm in-vitro ramos): 1.1
isoTOP-ABPP ratio (reactivity profile), P40763_C259 (STAT3 C259 (P40763); 500 μm in-vitro ramos): 1.7
isoTOP-ABPP ratio (reactivity profile), O00170_C122 (AIP C122 (O00170)): 1.3
isoTOP-ABPP ratio (reactivity profile), P24752_C196 (ACAT1 C196 (P24752); 500 μm in-vitro ramos): 1.1
isoTOP-ABPP ratio (reactivity profile), P24752_C413 (ACAT1 C413 (P24752); 500 μm in-vitro ramos): 1.2
isoTOP-ABPP ratio (reactivity profile), P24752_C126 (ACAT1 C126 (P24752); 500 μm in-vitro ramos): 1.1
SMILES: CC(Br)C(=O)Nc1cc(C(F)(F)F)cc(C(F)(F)F)c1 (stereo not drawn) [compound 24]

isoTOP-ABPP ratio (reactivity profile), Q15084_C55 (PDIA6 C55 (Q15084); 500 μm in-vitro ramos): 1.3
isoTOP-ABPP ratio (reactivity profile), Q15084_C55 (PDIA6 C55 (Q15084); 500 μm in-vitro ramos_231): 1.0
isoTOP-ABPP ratio (reactivity profile), Q8TAQ2_C145 (SMARCC2 C145 (Q8TAQ2); 500 μm in-vitro ramos_231): 1.0
isoTOP-ABPP ratio (reactivity profile), Q9Y3Z3_C522 (SAMHD1 C522 (Q9Y3Z3); 500 μm in-vitro ramos_231): 1.5
isoTOP-ABPP ratio (reactivity profile), P40763_C259 (STAT3 C259 (P40763); 500 μm in-vitro ramos_231): 1.5
isoTOP-ABPP ratio (reactivity profile), O00170_C122 (AIP C122 (O00170)): 1.3
isoTOP-ABPP ratio (reactivity profile), P68036_C86 (UBE2L3 C86 (P68036); 500 μm in-vitro ramos): 1.5
isoTOP-ABPP ratio (reactivity profile), P68036_C86 (UBE2L3 C86 (P68036); 500 μm in-vitro ramos_231): 0.9
isoTOP-ABPP ratio (reactivity profile), P24752_C196 (ACAT1 C196 (P24752); 500 μm in-vitro ramos): 1.0
isoTOP-ABPP ratio (reactivity profile), P24752_C196 (ACAT1 C196 (P24752); 500 μm in-vitro ramos_231): 1.3
isoTOP-ABPP ratio (reactivity profile), P24752_C413 (ACAT1 C413 (P24752); 500 μm in-vitro ramos): 0.7
isoTOP-ABPP ratio (reactivity profile), P24752_C413 (ACAT1 C413 (P24752); 500 μm in-vitro ramos_231): 1.3
isoTOP-ABPP ratio (reactivity profile), P24752_C126 (ACAT1 C126 (P24752); 500 μm in-vitro ramos): 0.8
isoTOP-ABPP ratio (reactivity profile), P24752_C126 (ACAT1 C126 (P24752); 500 μm in-vitro ramos_231): 1.1
SMILES: O=C(CCl)N1CCN(CC(=O)N2CCOCC2)CC1 [compound 29]

isoTOP-ABPP reactivity ratio, Q15084_C55 (PDIA6 C55 (Q15084); 500 μm, in-vitro_ramos): 1.0
isoTOP-ABPP reactivity ratio, Q96GG9_C115 (DCUN1D1 C115 (Q96GG9); 500 μm, in-vitro_ramos): 0.8
isoTOP-ABPP reactivity ratio, Q9Y3Z3_C522 (SAMHD1 C522 (Q9Y3Z3); 500 μm, in-vitro_ramos): 0.7
isoTOP-ABPP reactivity ratio, P40763_C259 (STAT3 C259 (P40763); 500 μm, in-vitro_ramos): 0.9
isoTOP-ABPP reactivity ratio, P24752_C196 (ACAT1 C196 (P24752); 500 μm, in-vitro_ramos): 1.0
isoTOP-ABPP reactivity ratio, P24752_C413 (ACAT1 C413 (P24752); 500 μm, in-vitro_ramos): 0.9
isoTOP-ABPP reactivity ratio, P24752_C126 (ACAT1 C126 (P24752); 500 μm, in-vitro_ramos): 0.9
SMILES: C=CC(=O)N1CCC(c2noc3ccc(F)cc23)CC1 [compound 37]
